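Each compound was tested at five concentrations against cells in 96-well plates for 48 hours. At the TGI there is no net growth.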
How the values were obtained:
Test in all cases: NCI anticancer screen, dose series, 48 h
ACHN renal = tested on: ACHN renal
CCRF-CEM leukemia = tested on: CCRF-CEM leukemia
COLO 205 colon = tested on: COLO 205 colon
K-562 leukemia = tested on: K-562 leukemia
LOX IMVI melanoma = tested on: LOX IMVI melanoma
MOLT-4 leukemia = tested on: MOLT-4 leukemia
SK-OV-3 ovarian = tested on: SK-OV-3 ovarian
SN12C renal = tested on: SN12C renal
UO-31 renal = tested on: UO-31 renal
BT-549 breast = tested on: BT-549 breast
MDA-N = tested on: MDA-N
PC-3 prostate = tested on: PC-3 prostate
SR leukemia = tested on: SR leukemia

Structure (SMILES) | TGI (ACHN renal) [µM] | TGI (CCRF-CEM leukemia) [µM] | TGI (COLO 205 colon) [µM] | TGI (K-562 leukemia) [µM] | TGI (LOX IMVI melanoma) [µM] | TGI (MOLT-4 leukemia) [µM] | TGI (SK-OV-3 ovarian) [µM] | TGI (SN12C renal) [µM] | TGI (UO-31 renal) [µM] | TGI (BT-549 breast) [µM] | TGI (MDA-N) [µM] | TGI (PC-3 prostate) [µM] | TGI (SR leukemia) [µM]
COc1cc(C2C(Cl)C(=O)N2NC(=O)c2ccc(N)cc2)cc(Br)c1O (configuration not stated) | 45.1 | 12.1 | 33.4 | 48.7 | 11 | 20 | 73 | 33.4 | 35.6 | – | – | – | –
C/C(=N\Nc1nc2cccnc2s1)c1ccccn1 | 1.07 | > 100 | > 100 | > 100 | – | – | 2.79 | > 100 | 0.307 | 15.9 | > 100 | 30.6 | > 100
C=C[C@]1(C)CCC2=C(CCC3C2(C)CCC[C@@]3(C)COC(C)=O)C1 (some centres not stated) | 38.7 | 35.4 | 30 | 33.5 | 33.8 | 30.3 | 33 | 31.4 | 33.4 | – | – | – | 35.8
CC(C)(C)C1=CC(=C2C(=O)C(=O)c3ccccc3C2=O)C=C(C(C)(C)C)C1=O | > 100 | > 100 | > 100 | > 100 | > 100 | – | > 100 | > 100 | > 100 | – | – | – | –
CCOP(=O)(OCC)/C(C#N)=C/c1cnc[nH]1 | > 100 | > 100 | > 100 | > 100 | > 100 | > 100 | > 100 | > 100 | > 100 | > 100 | – | > 100 | > 100
O=C(O)c1ccc(C2SCc3nc4ccccc4n32)cc1 (configuration not stated) | > 100 | > 100 | – | > 100 | – | > 100 | – | > 100 | > 100 | > 100 | > 100 | > 100 | > 100
CC(C)(C)c1cc2c(O)c(c1)Cc1cc(C(C)(C)C)cc(c1O)Cc1cc(C(C)(C)C)cc(c1O)Cc1cc(C(C)(C)C)cc(c1O)Cc1cc(C(C)(C)C)cc(c1O)Cc1cc(C(C)(C)C)cc(c1O)Cc1cc(C(C)(C)C)cc(c1O)Cc1cc(C(C)(C)C)cc(c1O)C2 | > 50 | > 50 | > 50 | > 50 | – | > 50 | > 50 | > 50 | > 50 | – | > 50 | > 50 | > 50
Fc1ccc(-c2sc(-c3cccs3)cc2Cc2cccs2)cc1 | > 100 | > 100 | > 100 | > 100 | > 100 | > 100 | > 100 | > 100 | > 100 | > 100 | – | – | –
COc1cccc(N(CN2C(=O)CCC2C(=O)O)C(C)=O)c1 (configuration not stated) | > 100 | – | > 100 | > 100 | > 100 | > 100 | > 100 | > 100 | > 100 | – | > 100 | > 100 | > 100
CCOC(=O)c1c2c(c(O)c3ccccc3c(O)n(Cc3ccccc3)c1C)C(=O)C=CC2=O | > 100 | > 100 | > 100 | > 100 | > 100 | > 100 | > 100 | > 100 | > 100 | – | > 100 | > 100 | > 100
CN1CCC2(CC1)C(=NC1CCCCC1)NC(=S)N2c1ccccc1 | > 100 | > 100 | > 100 | > 100 | > 100 | > 100 | > 100 | > 100 | > 100 | – | – | – | > 100
COC(=O)C1=C(C)C=C(N2CCOCC2)C(C(=O)OC)C1c1ccccc1 (configuration not stated) | > 10 | > 10 | > 10 | > 10 | > 10 | > 10 | > 10 | > 10 | > 10 | > 10 | > 10 | > 10 | –
OCCN1CCN2C=C(C3CCCC4N(CCO)CCN34)CCC21 (configuration not stated) | > 100 | 36.3 | > 100 | > 61.5 | > 100 | 53.6 | > 100 | > 100 | > 100 | – | – | – | 26.3
Ic1cc2c(cc1C1SCCCS1)OCO2 | > 100 | > 100 | > 100 | > 100 | > 100 | > 100 | > 100 | > 100 | > 100 | – | – | – | > 100
CCCCCC/C=C1\CCC(CN2CCOCC2)C1=O (configuration not stated) | 31.2 | > 25.4 | 32.3 | 16.4 | 25.1 | 18.1 | > 79.4 | 33.4 | 27.5 | – | – | – | 13.6
CC(=O)OC12c3ccccc3-c3ccccc3C1C1C(=O)OC(=O)C12 (configuration not stated) | > 10 | > 10 | > 10 | > 10 | > 10 | > 10 | > 10 | > 10 | > 10 | – | > 10 | > 10 | > 10
Brc1ccc2c(c1)-c1nc3nc4c(cc3cc1CC2)CCc1ccc(Br)cc1-4 | > 100 | – | > 100 | > 100 | > 100 | > 100 | > 100 | > 100 | > 100 | > 100 | > 100 | > 100 | –
Nc1cc(=O)n(-c2ccccc2)c(=S)n1-c1ccccc1 | > 100 | > 100 | > 100 | > 100 | > 100 | > 100 | > 100 | > 100 | > 100 | – | – | – | –
COC(=O)[C@H](Cc1ccc(OC(C)(C)C)cc1)N[C@H](C)C(=O)N[C@@H](Cc1ccccc1)C(=O)OCc1ccccc1 | > 100 | > 100 | > 100 | 63.5 | > 100 | 50 | > 100 | > 100 | 43.7 | – | > 100 | > 100 | 70.5

Structure (SMILES) | TGI (ACHN renal) [µM] | TGI (CCRF-CEM leukemia) [µM] | TGI (COLO 205 colon) [µM] | TGI (K-562 leukemia) [µM] | TGI (LOX IMVI melanoma) [µM] | TGI (MOLT-4 leukemia) [µM] | TGI (SK-OV-3 ovarian) [µM] | TGI (SN12C renal) [µM] | TGI (UO-31 renal) [µM] | TGI (BT-549 breast) [µM] | TGI (MDA-N) [µM] | TGI (PC-3 prostate) [µM] | TGI (SR leukemia) [µM]
CCN(CC)Cc1c(/C=C\c2cc(OC)c(OC)c(OC)c2)ccc(OC)c1O | > 100 | > 100 | 7.36 | > 100 | > 100 | > 100 | 10.2 | > 71.7 | > 94.1 | > 82.2 | 1.59 | > 41.5 | –
CC(=O)OC1COC(N2C(=O)C(=O)c3cc(Br)ccc32)C(OC(C)=O)C1OC(C)=O (configuration not stated) | > 100 | > 100 | > 100 | > 100 | > 100 | > 100 | > 100 | > 100 | > 100 | – | – | – | > 100
COc1ccccc1/C=C1\NC(=S)N(/C=C2\C(=O)Oc3ccccc3C2=O)C1=O | > 100 | 76.5 | > 100 | – | > 100 | 72.6 | > 100 | > 100 | 82.9 | > 100 | – | > 100 | –
O=C(NCCNCCCNC(=O)c1cc(-c2ccccc2)nc2ccccc12)c1cccc(OCc2ccccc2)c1OCc1ccccc1 | 3.11 | 3.47 | 3.11 | 3.48 | 2.95 | 3.51 | 3.1 | 3.24 | 3.03 | – | 3.05 | 3.04 | –
COC1OC(COC(=O)c2cc(O)c(O)c(O)c2)C(OC(=O)c2cc(O)c(O)c(O)c2)C(OC(=O)c2cc(O)c(O)c(O)c2)C1OC(=O)c1cc(O)c(O)c(O)c1 (configuration not stated) | > 100 | 42.5 | > 100 | 49.7 | > 100 | 70.6 | 54 | > 100 | > 100 | – | 87.6 | > 100 | 36
CC(=O)NC1C(OCc2ccccc2)OC(COC(=O)CCCCCCCCCCNc2ccc([N+](=O)[O-])c3[nH]c4ccccc4c(=O)c23)C(O)C1OC(C)C(=O)NC(C)C(=O)NC(CCC(N)=O)C(=O)OCc1ccccc1 (configuration not stated) | > 100 | – | > 100 | > 100 | > 100 | > 100 | > 100 | > 100 | > 100 | – | – | – | > 100
CC(=O)C1=C(C)N(c2ccc(C)cc2)C2(O)C3=C(C(=O)c4ccccc4C3=O)C(O)=CC12Cl (configuration not stated) | > 100 | – | 63.9 | > 100 | > 100 | > 100 | > 100 | 57.9 | 34.6 | 45.9 | – | > 100 | > 100
COP(=O)(OC)C(O)CC(C)C (configuration not stated) | > 100 | – | > 100 | > 100 | – | > 100 | > 100 | > 100 | > 100 | – | > 100 | > 100 | –
Nc1nc2c(ncn2Cc2ccccc2CO)c(=O)[nH]1 | > 100 | > 100 | > 100 | > 100 | > 100 | > 100 | > 100 | > 100 | > 100 | > 100 | – | > 100 | > 100
CSC12c3cc(C)n(-c4ccccc4)c3CC(C)(C)CN1C(=O)C2Oc1ccccc1 (configuration not stated) | > 100 | > 100 | > 100 | > 100 | > 100 | > 100 | – | > 100 | > 100 | > 100 | – | > 100 | > 100
Cc1cccc(-c2cc(=O)c3c(C)cc(C)nc3[nH]2)c1 | > 100 | > 86.5 | 8.16 | 32.3 | > 100 | > 100 | > 100 | > 100 | > 100 | 30.2 | – | > 100 | 9.3
Clc1ccc(-c2c(C3=NCCCN3)nnn2-c2ccccc2)cc1 | > 100 | > 100 | > 100 | > 100 | 55.7 | > 100 | > 100 | > 100 | > 100 | – | – | – | > 100
CC1=CC(=O)CC(C)(C)C1/C=C/C(C)=C/C=C/C(C)=C/C=C/C=C(C)/C=C/C=C(C)/C=C/C1=C(C)CC(O)CC1(C)C (configuration not stated) | 74.3 | > 100 | – | 27.1 | > 100 | 1.6 | > 100 | – | > 100 | – | > 100 | > 100 | 4.52
Cc1cc(S(=O)(=O)/N=C(/[N-]S(=O)(=O)c2ccc(Cl)cc2)[n+]2ccc(N(C)C)cc2)c(SCC(=O)O)cc1Cl | > 100 | > 100 | > 100 | > 100 | > 100 | > 100 | > 100 | > 100 | > 100 | > 100 | – | > 100 | > 100
NN1C(=O)C(CCO)S/C1=N/N=C1/SC(CCO)C(=O)N1N (configuration not stated) | > 100 | > 100 | > 100 | > 100 | > 100 | > 100 | > 100 | > 100 | > 100 | – | – | – | > 100
O=C(O)CC(Sc1ccccc1)c1ccccc1 (configuration not stated) | > 100 | – | > 100 | > 100 | > 100 | > 100 | > 100 | > 100 | > 100 | > 100 | > 100 | > 100 | –
Cc1c2ccncc2c(C)c2c1[nH]c1ccc(OCC(F)(F)F)cc12 | 2.88 | 4.9 | 3.18 | 3.91 | 3.09 | 3.26 | 3.31 | 2.78 | 3.16 | – | – | – | 4.2
O=C(/C(=C\c1ccc(Cl)cc1)c1ccccc1)c1ccccc1 | > 100 | > 100 | > 100 | > 100 | > 100 | > 100 | > 100 | > 100 | > 100 | – | – | – | > 100
COc1ccc(C(=O)C(c2ccc(OCc3ccccc3)cc2)c2ccc(OCc3ccccc3)cc2)cc1 | > 100 | > 100 | > 100 | > 100 | > 100 | > 100 | > 100 | > 100 | > 100 | – | – | – | > 100
